Reference: patent publication US8849577B2, “Methods of identifying biochemical pathways” (Metabolon, Inc., priority 2006, dated 2014)
Entries after “also recorded” stand apart in the source; their conditions may differ.

What was measured:
Format in all cases: cell-based, human
adipocyte cells = experiment: Metabolomic analysis of test compounds in adipocyte cultures; details: Primary Adipocytes, 30 μM, vs DMSO; for number of compounds affected, # decreased / number of compounds affected, # increased: p < 0.01
Method: (§1) The cell cultures used in this example were performed according to standard protocols with the cells in 10% FCS. […] The adipocytes were human and fully differentiated.
(§2) The target of the agent is not present in the cell cultures assayed, thus the changed compounds for each culture represent off-target effects, and therefore, the number of changed compounds can be used to generate a score that can be used as one criteria to rank the test compounds.

HepG2 = experiment: Metabolomic analysis of test compounds in HepG2 (hepatocyte) cultures; details: Hepatocytes, 30 μM, vs DMSO; for number of compounds affected, # decreased / number of compounds affected, # increased: p < 0.01
Method: as §1, §2

preadipocyte cells = experiment: Comparative metabolomic analysis of PPAR activators in preadipocyte cells; details: 3 hours treatment
Method: The cell used in this assay were preadipocyte cells from a human with a BMI of 23.29. The cells were plated at 1 million per well in 6-well plates. Eight cultures were used for each experimental group. The cells were washed with basal medium (1 ml/well) and treated with compounds in 1 ml of basal medium for 3 hours. After treatment, the cells were then washed with PBS (1 ml), two times and then trypsinized with 300 μl for 5 minutes at 37 degrees. One ml of PM-1 was then added per well to neutralized the trypsin and the cells were collected in 1.5 ml eppendorf tube. The cells were then pelleted by centrifugation (280×g) and the pellets were washed with PBS (1 ml). The cell pellets were then frozen at −80 degrees.

Row | Compound | Ratio Drug/DMSO: 3-phospho-I-serine (preadipocyte cells) | Ratio Drug/DMSO: Isobar-17-includes-arginine-N-alpha-acetyl-ornithine (preadipocyte cells) | Ratio Drug/DMSO: Isobar-22-includes-glutamic acid-O-acetyl-L-serine (preadipocyte cells) | Ratio Drug/DMSO: Isobar-28-includes-L-threonine-L-allothreonine-L-homoserine (preadipocyte cells) | Ratio Drug/DMSO: L-alpha-glycerophosphorylcholine (preadipocyte cells) | Ratio Drug/DMSO: N-acetyl-D-galactosamine (preadipocyte cells) | Ratio Drug/DMSO: adenosine-5-monophosphate (preadipocyte cells) | Ratio Drug/DMSO: alanine (preadipocyte cells) | Ratio Drug/DMSO: carnitine (preadipocyte cells) | Ratio Drug/DMSO: citric acid (preadipocyte cells) | Ratio Drug/DMSO: gly-gly (preadipocyte cells) | Ratio Drug/DMSO: glycerol (preadipocyte cells) | Ratio Drug/DMSO: guanosine (preadipocyte cells) | Ratio Drug/DMSO: hypoxanthine (preadipocyte cells) | Ratio Drug/DMSO: inosine (preadipocyte cells) | Ratio Drug/DMSO: n-hexadecanoic acid (preadipocyte cells) | Ratio Drug/DMSO: octadecanoic acid (preadipocyte cells) | Ratio Drug/DMSO: pantothenic acid (preadipocyte cells) | Ratio Drug/DMSO: phosphoenolpyruvate (preadipocyte cells) | Ratio Drug/DMSO: serine (preadipocyte cells) | other results
1 | COC(=O)N[C@H](C(=O)N[C@@H](Cc1ccccc1)[C@@H](O)CN(Cc1ccc(-c2ccccn2)cc1)NC(=O)[C@@H](NC(=O)OC)C(C)(C)C)C(C)(C)C [ATV] | – | – | – | – | – | – | – | – | – | – | – | – | – | – | – | – | – | – | – | – | number of compounds affected, Total p < 0.01 (adipocyte cells): 87; number of compounds affected, # decreased (adipocyte cells): 55; number of compounds affected, # increased (adipocyte cells): 32; number of compounds affected, Total p < 0.01 (HepG2): 71; number of compounds affected, # decreased (HepG2): 55; number of compounds affected, # increased (HepG2): 16
2 | CC1(COc2ccc(CC3SC(=O)NC3=O)cc2)CCCCC1 (stereo not shown) [Ciglitazone] | 0.91 | 0.87 | 0.99 | 0.72 | 1.81 | 0.36 | 1.09 | 0.91 | 0.90 | 0.86 | 1.36 | 0.93 | 1.55 | 1.76 | 2.25 | 1.05 | 1.05 | 1.10 | 0.76 | 0.98 | Ratio Drug/DMSO: aspartate (preadipocyte cells): 1.29; Ratio Drug/DMSO: gamma-L-glutamyl-L-glutamin (preadipocyte cells): 0.73; Ratio Drug/DMSO: glutamine (preadipocyte cells): 0.78; Ratio Drug/DMSO: o-phosphoethanolamine (preadipocyte cells): 5.42; Ratio Drug/DMSO: oxidized-glutathione (preadipocyte cells): 0.77; Ratio Drug/DMSO: sn-glycerol-3-phosphate (preadipocyte cells): 1.53; Ratio Drug/DMSO: threonine (preadipocyte cells): 0.84; Ratio Drug/DMSO: tryptophan (preadipocyte cells): 0.91
3 | CC(C)(Sc1ccc(CCN(CCCCC2CCCCC2)C(=O)NC2CCCCC2)cc1)C(=O)O [GW7647] | 0.89 | 0.97 | 0.86 | 0.82 | 1.31 | 0.98 | 1.41 | 0.95 | 0.83 | 1.06 | 1.12 | 1.14 | 1.22 | 1.89 | 1.89 | 1.02 | 1.02 | 0.96 | 0.91 | 1.05 | Ratio Drug/DMSO: sn-glycerol-3-phosphate (preadipocyte cells): 1.43; Ratio Drug/DMSO: tryptophan (preadipocyte cells): 1.06; metabolite change relative to DMSO control (preadipocyte cells): increase in glycerol; also recorded: more carnitine is being utilized to shuffle FA into the mitochondria and hence, levels decrease
4 | Cc1cccc(C)c1OCC(=O)N[C@@H](Cc1ccccc1)[C@@H](O)C[C@H](Cc1ccccc1)NC(=O)[C@H](C(C)C)N1CCCNC1=O [LPV] | – | – | – | – | – | – | – | – | – | – | – | – | – | – | – | – | – | – | – | – | number of compounds affected, Total p < 0.01 (adipocyte cells): 99; number of compounds affected, # decreased (adipocyte cells): 46; number of compounds affected, # increased (adipocyte cells): 53; number of compounds affected, Total p < 0.01 (HepG2): 131; number of compounds affected, # decreased (HepG2): 27; number of compounds affected, # increased (HepG2): 104
5 | Cc1c(C)c2c(c(C)c1O)CCC(C)(COc1ccc(CC3SC(=O)NC3=O)cc1)O2 (stereo not shown) [Troglitazone, troglitazone] | 0.77 | 0.82 | 0.92 | 0.63 | 1.24 | 0.91 | 0.95 | 0.86 | 0.92 | 0.77 | 1.42 | 1.08 | 0.98 | 1.63 | 1.58 | 1.17 | 1.18 | 1.33 | 0.85 | 0.86 | Ratio Drug/DMSO: aspartate (preadipocyte cells): 2.06; Ratio Drug/DMSO: gamma-L-glutamyl-L-glutamin (preadipocyte cells): 0.64; Ratio Drug/DMSO: glutamine (preadipocyte cells): 0.76; Ratio Drug/DMSO: o-phosphoethanolamine (preadipocyte cells): 1.50; Ratio Drug/DMSO: oxidized-glutathione (preadipocyte cells): 0.77; Ratio Drug/DMSO: sn-glycerol-3-phosphate (preadipocyte cells): 1.42; Ratio Drug/DMSO: threonine (preadipocyte cells): 0.83; Ratio Drug/DMSO: tryptophan (preadipocyte cells): 0.98
